Test results as given in ChEMBL document CHEMBL4265931, “Identification of dual Sigma1 receptor modulators/acetylcholinesterase inhibitors with antioxidant and neurotrophic properties, as neuroprotective agents” (Eur J Med Chem, 2018).
The source made the active and inactive calls. No cut-off for these calls is given here.

What was measured:
[1] = Selectivity ratio of Ki for S2R in rat liver membranes to Ki for S1R in guinea pig brain cortex membranes; type: cell membranes
in vitro [2] = conditions: human
Description: Cytotoxicity against human SH-SY5Y cells assessed as cell viability at 10 uM after 24 hrs by MTS assay relative to control

SH-SY5Y [3] = experiment: Cytotoxicity against human SH-SY5Y cells assessed as reduction in cell viability after 48 hrs by MTS assay; type: cell-based; conditions: for IC50: Homo sapiens, SH-SY5Y; for Activity: human, sh-sy5y
in vitro [4] = conditions: human; remark: listed apart in the source
Description: Cytotoxicity against human SH-SY5Y cells assessed as cell viability at 10 uM after 48 hrs by MTS assay relative to control

Acetylcholinesterase = Acetylcholinesterase (Electrophorus electricus, UniProt O42275); experiment: Inhibition of electric eel AChE using acetylthiocholine iodide as substrate preincubated for 5 mins followed by substrate addition and measured after 2 mins by Ellman's method
in vitro [5] = conditions: human; remark: listed apart in the source
Description: Cytotoxicity against human SH-SY5Y cells assessed as cell viability at 50 uM after 48 hrs by MTS assay relative to control

[6] = Neurotrophic activity in Sprague-Dawley rat embryo DRG neuron assessed as increase in neurite length at 2.5 to 5 uM after 24 to 48 hrs relative to control; type: functional
SH-SY5Y [7] = experiment: Neuroprotection against H2O2-induced oxidative stress in human SH-SY5Y cells assessed as reduction in ROS generation at 10 uM preincubated for 3 hrs followed by DCFDA addition for 45 mins and subsequent co-treatment with compound and H2O2 for 24 hrs by fluorescence assay relative to control; type: functional; set-up: scale not given: the % may be the effect or the level left
[8] = Displacement of [3H]-ifenprodil from GluN1a/GluN2B (unknown origin) expressed in mouse L(tk-) cell membranes after 120 mins by scintillation counting analysis; set-up: species or system Homo sapiens
[9] = Neurotoxicity in Sprague-Dawley rat embryo DRG neuron at 10 uM after 48 hrs; type: toxicity
in vitro [10] = conditions: human; remark: listed apart in the source
Description: Cytotoxicity against human SH-SY5Y cells assessed as cell viability at 50 uM after 24 hrs by MTS assay relative to control

[11] = Neurotoxicity in Sprague-Dawley rat embryo DRG neuron at 10 uM after 24 hrs; type: toxicity
[12] = target: T1, Sigma intracellular receptor 2 (Rattus norvegicus, UniProt Q5U3Y7); experiment: Displacement of [3H]-DTG from S2R in rat liver membranes after 120 mins by scintillation counting assay; type: cell membranes, Membrane
T1 sequence (Q5U3Y7 whole entry): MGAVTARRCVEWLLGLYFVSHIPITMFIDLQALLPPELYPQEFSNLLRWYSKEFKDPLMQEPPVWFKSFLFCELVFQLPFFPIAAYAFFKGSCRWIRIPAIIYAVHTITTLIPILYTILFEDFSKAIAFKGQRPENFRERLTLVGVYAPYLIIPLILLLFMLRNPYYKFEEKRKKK

in vitro [13] = conditions: human; remark: listed apart in the source
SH-SY5Y [14] = experiment: Cytotoxicity against human SH-SY5Y cells assessed as reduction in cell viability after 24 hrs by MTS assay; type: cell-based; conditions: for IC50: Homo sapiens, SH-SY5Y; for Activity: human, sh-sy5y
in vitro [15] = conditions: human; remark: listed apart in the source
[16] = Neurotoxicity in Sprague-Dawley rat embryo DRG neuron at 2.5 to 5 uM after 24 to 48 hrs; type: toxicity
[17] = Antioxidant activity assessed as DPPH free radical scavenging at 465 uM after 20 mins by UV-Vis spectrophotometric analysis relative to control; type: functional
[18] = Neurotrophic activity in Sprague-Dawley rat embryo DRG neuron assessed as increase in neurite length at 2.5 uM after 24 hrs relative to control; type: functional
[19] = Antioxidant activity assessed as DPPH free radical scavenging after 20 mins by UV-Vis spectrophotometric analysis; type: functional
[20] = target: Sigma non-opioid intracellular receptor 1 (Cavia porcellus, UniProt Q60492); set-up: species or system Hartley
Sequence of Sigma non-opioid intracellular receptor 1 (Q60492 whole entry): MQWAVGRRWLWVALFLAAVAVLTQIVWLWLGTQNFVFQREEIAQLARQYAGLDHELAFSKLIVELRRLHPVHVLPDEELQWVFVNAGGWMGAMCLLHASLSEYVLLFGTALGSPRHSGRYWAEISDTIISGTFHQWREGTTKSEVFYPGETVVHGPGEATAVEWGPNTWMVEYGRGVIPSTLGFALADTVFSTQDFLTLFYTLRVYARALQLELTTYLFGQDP
Description: Displacement of [3H]DTG from S1R in P2 fraction of Hartley guinea pig whole brain after 90 mins by liquid scintillation counting method

Sequence of Acetylcholinesterase (O42275 whole entry): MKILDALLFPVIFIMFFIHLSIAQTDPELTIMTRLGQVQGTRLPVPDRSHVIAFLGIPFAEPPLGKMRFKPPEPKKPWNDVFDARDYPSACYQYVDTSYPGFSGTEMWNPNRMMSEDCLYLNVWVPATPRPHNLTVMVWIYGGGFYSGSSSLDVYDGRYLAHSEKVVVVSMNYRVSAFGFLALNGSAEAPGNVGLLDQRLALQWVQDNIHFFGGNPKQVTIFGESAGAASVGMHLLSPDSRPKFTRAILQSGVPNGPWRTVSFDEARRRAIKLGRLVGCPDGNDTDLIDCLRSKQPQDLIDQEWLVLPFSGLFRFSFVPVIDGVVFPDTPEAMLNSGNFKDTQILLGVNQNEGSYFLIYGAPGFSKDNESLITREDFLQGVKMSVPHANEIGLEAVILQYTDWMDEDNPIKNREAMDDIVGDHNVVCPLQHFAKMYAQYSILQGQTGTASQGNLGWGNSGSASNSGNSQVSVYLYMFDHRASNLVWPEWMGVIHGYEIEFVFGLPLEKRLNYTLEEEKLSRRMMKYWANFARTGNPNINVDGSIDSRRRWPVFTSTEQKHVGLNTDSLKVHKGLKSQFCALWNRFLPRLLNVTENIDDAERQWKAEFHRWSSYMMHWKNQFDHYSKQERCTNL

| SMILES | Ratio Ki [1] | viability at 24 h, 10 µM (in vitro [2]; SH-SY5Y cells) [%] | IC50 (SH-SY5Y [3]) [µM] | Activity (SH-SY5Y [3]) | viability at 48 h, 10 µM (in vitro [4]; SH-SY5Y cells) [%] | IC50 (Acetylcholinesterase) [µM] | viability at 48 h, 50 µM (in vitro [5]; SH-SY5Y cells) [%] | Activity (SH-SY5Y [7]) | Ki [8] [µM] | Activity [9] | viability at 24 h, 50 µM (in vitro [10]; SH-SY5Y cells) [%] | Activity [11] | Ki [12] [µM] | viability at 24 h, 25 µM (in vitro [13]; SH-SY5Y cells) [%] | IC50 (SH-SY5Y [14]) [µM] | Activity (SH-SY5Y [14]) | viability at 48 h, 25 µM (in vitro [15]; SH-SY5Y cells) [%] | Activity [16] | Activity [17] [%] | IC50 [19] [µM] | also measured |
| --- | --- | --- | --- | --- | --- | --- | --- | --- | --- | --- | --- | --- | --- | --- | --- | --- | --- | --- | --- | --- | --- |
| Cl.O=C(CCN1CCCCC1)c1ccc(-c2ccccc2)cc1 | 30.8 | 104 | 22 | Dose-dependent effect | 95.9 | 13.1 | 44.7 | 18% | > 1 | Non-Toxic | 64 | Toxic | 0.462 | 95.4 | 37 | Dose-dependent effect | 49.3 | Non-Toxic | 15.5 |  | Activity [6]: 20% |
| Cl.O=C(CN1CCC(Cc2ccccc2)CC1)c1ccc2ccccc2c1 | 30 | 107 | 57 | Dose-dependent effect | 89.5 | 9.13 | 48.4 | <=43% | 0.139 | Non-Toxic | 81.3 | Toxic | 0.802 | 104 | 52 | Dose-dependent effect | 77.6 | Non-Toxic | 65.7 | 86.8 | Activity [18]: 15% |
| COc1cc(/C=C/C(=O)CC(=O)/C=C/c2ccc(O)c(OC)c2)ccc1O [CURCUMIN] |  | 100 |  |  | 100 |  | 59 | 0% |  |  | 71.5 |  |  | 76.5 |  |  | 58.7 |  | 71.3 | 13.5 |  |
| COc1cc2c(cc1OC)C(=O)C(CC1CCN(Cc3ccccc3)CC1)C2 (centres undefined) [DONEPEZIL] |  |  |  |  |  |  |  | inactive |  |  |  |  |  |  |  |  |  |  | 4.4 |  | viability at 24 h, 10 µM (in vitro [2]; sh-sy5y): 100%; viability at 48 h, 10 µM (in vitro [4]; sh-sy5y): 94.3%; viability at 48 h, 50 µM (in vitro [5]; sh-sy5y): 64.4%; viability at 24 h, 50 µM (in vitro [10]; sh-sy5y): 94.7%; viability at 24 h, 25 µM (in vitro [13]; sh-sy5y): 99.3%; Ki [20]: 0.0146 µM; viability at 48 h, 25 µM (in vitro [15]; sh-sy5y): 80.4% |
